From the supplement of paper PMC10307832

Columns and labels:
Test in all cases: relative viability (nuclei count vs DMSO), 5 days (fraction); higher = more cells survive
[1] = compound: CN(C)CC1=CC(=CC=C1)N=C(C2=CC=CC=C2)C3=C(NC4=C3C=CC(=C4)C(=O)N(C)C)O + COc1cc2c(Oc3ccc(NC(=O)C4(C(=O)Nc5ccc(F)cc5)CC4)cc3F)ccnc2cc1OCCCN1CCOCC1 [Foretinib] (partner 0.25 µM)
Outline: (§1)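 Five library-drug doses in √10 steps were combined with a fixed anchor-drug dose, or a single drug was given alone, by pin tool to lung cancer cell lines in 1536-well plates the day after seeding. Nuclei were stained and counted after 5 days. Relative viability is the nuclei count in treated wells over that in vehicle wells, taken as the median of duplicate plates.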

[2] = compound: CN(C)CC1=CC(=CC=C1)N=C(C2=CC=CC=C2)C3=C(NC4=C3C=CC(=C4)C(=O)N(C)C)O + Cc1nc(NC(=O)N2CCC[C@H]2C(N)=O)sc1-c1ccnc(C(C)(C)C(F)(F)F)c1 [Alpelisib] (partner 2 µM)
Outline: as §1

[3] = compound: CN(C)CC1=CC(=CC=C1)N=C(C2=CC=CC=C2)C3=C(NC4=C3C=CC(=C4)C(=O)N(C)C)O + O=C(c1cc(Cc2n[nH]c(=O)c3ccccc23)ccc1F)N1CCN(C(=O)C2CC2)CC1 [Olaparib] (partner 8 µM)
Outline: as §1

[4] = compound: CN(C)CC1=CC(=CC=C1)N=C(C2=CC=CC=C2)C3=C(NC4=C3C=CC(=C4)C(=O)N(C)C)O + Nc1nc2[nH]cc(CCc3ccc(C(=O)N[C@@H](CCC(=O)O)C(=O)O)cc3)c2c(=O)[nH]1 [Pemetrexed] (partner 0.2 µM)
Outline: as §1

| Cell Line | relative viability ([1]; first compound 0.08 µM) | relative viability ([1]; first compound 0.253 µM) | relative viability ([1]; first compound 0.8 µM) | relative viability ([1]; first compound 2.53 µM) | relative viability ([1]; first compound 8 µM) | relative viability ([2]; first compound 0.08 µM) | relative viability ([2]; first compound 0.253 µM) | relative viability ([2]; first compound 0.8 µM) | relative viability ([2]; first compound 2.53 µM) | relative viability ([2]; first compound 8 µM) | relative viability ([3]; first compound 0.08 µM) | relative viability ([3]; first compound 0.253 µM) | relative viability ([3]; first compound 0.8 µM) | relative viability ([3]; first compound 2.53 µM) | relative viability ([3]; first compound 8 µM) | relative viability ([4]; first compound 0.08 µM) | relative viability ([4]; first compound 0.253 µM) | relative viability ([4]; first compound 0.8 µM) | relative viability ([4]; first compound 2.53 µM) | relative viability ([4]; first compound 8 µM) |
| --- | --- | --- | --- | --- | --- | --- | --- | --- | --- | --- | --- | --- | --- | --- | --- | --- | --- | --- | --- | --- |
| PC-14 | 0.9 | 0.903 | 1.02 | 0.934 | 0.951 | 0.92 | 0.865 | 0.962 | 0.924 | 0.837 | 0.325 | 0.212 | 0.23 | 0.294 | 0.312 | 0.13 | 0.13 | 0.147 | 0.15 | 0.135 |
| NCI-H647 | 1.26 | 1.1 | 1.12 | 1.15 | 1 | 1.2 | 1.14 | 1.14 | 0.98 | 0.66 | 0.386 | 0.579 | 0.523 | 0.575 | 0.305 | 0.179 | 0.181 | 0.147 | 0.172 | 0.181 |
| EKVX | 0.88 | 1.06 | 0.555 | 0.776 | 0.804 | 0.878 | 0.847 | 0.843 | 0.886 | 0.879 | 0.83 | 0.781 |  | 0.837 | 0.862 | 0.41 | 0.362 |  | 0.396 | 0.418 |
| NCI-H838 | 1.13 | 0.969 | 1 | 0.888 | 0.938 | 1.06 | 0.956 | 0.977 | 0.883 | 0.934 | 0.789 | 0.901 | 0.751 | 0.726 | 0.665 | 0.247 | 0.243 | 0.23 | 0.213 | 0.253 |
| NCI-H1437 | 1.3 | 1.22 | 1.35 | 1.27 | 1.33 | 1.01 | 0.996 | 0.951 | 0.906 | 0.971 | 0.621 | 0.659 | 0.634 | 0.622 | 0.635 | 0.297 | 0.294 | 0.287 | 0.283 | 0.285 |
| LK-2 | 1.15 | 1.16 | 1.27 | 1.15 | 1.17 | 1.2 | 0.924 | 0.897 | 0.928 | 0.881 | 0.901 | 0.653 | 0.572 | 0.679 | 0.489 | 0.286 | 0.253 | 0.236 | 0.269 | 0.211 |
| NCI-H2023 | 0.766 | 0.731 | 0.785 | 0.737 | 0.602 | 0.555 | 0.685 | 0.553 | 0.442 | 0.451 | 0.539 | 0.525 | 0.473 | 0.416 | 0.414 | 0.228 | 0.251 | 0.238 | 0.19 | 0.246 |
| PC-3 [JPC-3] | 1.06 | 1.09 | 0.916 | 1.03 | 1.06 | 1.02 | 0.976 | 1.04 | 1.01 | 1.02 | 1.12 | 1.05 | 1.01 | 1.12 | 1.11 | 1.08 | 1.04 | 0.665 | 1.08 | 1.28 |
| NCI-H2170 | 0.99 | 1.01 | 1.03 | 0.966 | 0.857 | 0.809 | 0.827 | 0.514 | 0.714 | 0.578 | 0.672 | 0.552 | 0.491 | 0.535 | 0.554 | 0.245 | 0.281 | 0.29 | 0.264 | 0.271 |
| LOU-NH91 | 0.931 | 0.882 | 0.732 | 0.917 | 0.936 | 0.743 | 0.72 | 0.577 | 0.718 | 0.696 | 0.931 | 0.867 | 0.817 | 0.906 | 0.89 | 0.383 | 0.367 | 0.465 | 0.349 | 0.465 |
| NCI-H520 | 0.799 | 0.789 | 0.695 | 0.712 | 0.649 | 0.865 | 0.871 | 0.825 | 0.725 | 0.656 | 0.378 | 0.352 | 0.284 | 0.298 | 0.286 | 0.688 | 0.654 | 0.737 | 0.563 | 0.435 |
| UMC-11 | 1.01 | 1.07 | 1.06 | 1.05 | 0.997 | 0.972 | 0.882 | 1.12 | 0.923 | 0.968 | 0.37 | 0.368 | 0.344 | 0.371 | 0.349 | 0.779 | 0.752 | 0.839 | 0.714 | 0.736 |
| BEN | 0.705 | 0.68 | 0.641 | 0.68 | 0.596 | 1.02 | 0.947 | 1.08 | 0.928 | 0.82 | 1.09 | 0.867 | 1.1 | 0.877 | 0.927 | 0.778 | 0.79 | 0.707 | 0.78 | 0.795 |
| LCLC-97TM1 | 0.958 | 0.821 | 0.822 | 0.917 | 0.975 | 0.286 | 0.203 | 0.293 | 0.324 | 0.343 | 0.485 | 0.392 | 0.442 | 0.391 | 0.433 | 0.167 | 0.198 | 0.187 | 0.183 | 0.177 |
| NCI-H1666 | 1.03 | 1.01 | 1 | 1 | 1.11 | 1.07 | 0.98 | 1.01 | 1.18 | 0.946 | 0.763 | 0.761 | 0.785 | 0.754 | 0.797 | 0.774 | 0.909 | 0.825 | 0.886 | 1.01 |
| SW 1573 | 0.919 | 0.808 | 0.759 | 0.867 | 0.973 | 0.787 | 0.711 | 0.651 | 0.802 | 0.642 | 0.362 | 0.416 | 0.419 | 0.523 | 0.377 | 0.823 | 0.83 | 0.987 | 0.792 | 0.768 |
